Results on 53 compounds are retold here after US9365588B2, “Benzoxazines as modulators of ion channels” (Vertex Pharmaceuticals Incorporated, priority 2011, dated 2016).

Usually IC50 stands for the concentration at which inhibition is half-maximal.

Chain of human NaV 1.7 (Q15858 whole entry): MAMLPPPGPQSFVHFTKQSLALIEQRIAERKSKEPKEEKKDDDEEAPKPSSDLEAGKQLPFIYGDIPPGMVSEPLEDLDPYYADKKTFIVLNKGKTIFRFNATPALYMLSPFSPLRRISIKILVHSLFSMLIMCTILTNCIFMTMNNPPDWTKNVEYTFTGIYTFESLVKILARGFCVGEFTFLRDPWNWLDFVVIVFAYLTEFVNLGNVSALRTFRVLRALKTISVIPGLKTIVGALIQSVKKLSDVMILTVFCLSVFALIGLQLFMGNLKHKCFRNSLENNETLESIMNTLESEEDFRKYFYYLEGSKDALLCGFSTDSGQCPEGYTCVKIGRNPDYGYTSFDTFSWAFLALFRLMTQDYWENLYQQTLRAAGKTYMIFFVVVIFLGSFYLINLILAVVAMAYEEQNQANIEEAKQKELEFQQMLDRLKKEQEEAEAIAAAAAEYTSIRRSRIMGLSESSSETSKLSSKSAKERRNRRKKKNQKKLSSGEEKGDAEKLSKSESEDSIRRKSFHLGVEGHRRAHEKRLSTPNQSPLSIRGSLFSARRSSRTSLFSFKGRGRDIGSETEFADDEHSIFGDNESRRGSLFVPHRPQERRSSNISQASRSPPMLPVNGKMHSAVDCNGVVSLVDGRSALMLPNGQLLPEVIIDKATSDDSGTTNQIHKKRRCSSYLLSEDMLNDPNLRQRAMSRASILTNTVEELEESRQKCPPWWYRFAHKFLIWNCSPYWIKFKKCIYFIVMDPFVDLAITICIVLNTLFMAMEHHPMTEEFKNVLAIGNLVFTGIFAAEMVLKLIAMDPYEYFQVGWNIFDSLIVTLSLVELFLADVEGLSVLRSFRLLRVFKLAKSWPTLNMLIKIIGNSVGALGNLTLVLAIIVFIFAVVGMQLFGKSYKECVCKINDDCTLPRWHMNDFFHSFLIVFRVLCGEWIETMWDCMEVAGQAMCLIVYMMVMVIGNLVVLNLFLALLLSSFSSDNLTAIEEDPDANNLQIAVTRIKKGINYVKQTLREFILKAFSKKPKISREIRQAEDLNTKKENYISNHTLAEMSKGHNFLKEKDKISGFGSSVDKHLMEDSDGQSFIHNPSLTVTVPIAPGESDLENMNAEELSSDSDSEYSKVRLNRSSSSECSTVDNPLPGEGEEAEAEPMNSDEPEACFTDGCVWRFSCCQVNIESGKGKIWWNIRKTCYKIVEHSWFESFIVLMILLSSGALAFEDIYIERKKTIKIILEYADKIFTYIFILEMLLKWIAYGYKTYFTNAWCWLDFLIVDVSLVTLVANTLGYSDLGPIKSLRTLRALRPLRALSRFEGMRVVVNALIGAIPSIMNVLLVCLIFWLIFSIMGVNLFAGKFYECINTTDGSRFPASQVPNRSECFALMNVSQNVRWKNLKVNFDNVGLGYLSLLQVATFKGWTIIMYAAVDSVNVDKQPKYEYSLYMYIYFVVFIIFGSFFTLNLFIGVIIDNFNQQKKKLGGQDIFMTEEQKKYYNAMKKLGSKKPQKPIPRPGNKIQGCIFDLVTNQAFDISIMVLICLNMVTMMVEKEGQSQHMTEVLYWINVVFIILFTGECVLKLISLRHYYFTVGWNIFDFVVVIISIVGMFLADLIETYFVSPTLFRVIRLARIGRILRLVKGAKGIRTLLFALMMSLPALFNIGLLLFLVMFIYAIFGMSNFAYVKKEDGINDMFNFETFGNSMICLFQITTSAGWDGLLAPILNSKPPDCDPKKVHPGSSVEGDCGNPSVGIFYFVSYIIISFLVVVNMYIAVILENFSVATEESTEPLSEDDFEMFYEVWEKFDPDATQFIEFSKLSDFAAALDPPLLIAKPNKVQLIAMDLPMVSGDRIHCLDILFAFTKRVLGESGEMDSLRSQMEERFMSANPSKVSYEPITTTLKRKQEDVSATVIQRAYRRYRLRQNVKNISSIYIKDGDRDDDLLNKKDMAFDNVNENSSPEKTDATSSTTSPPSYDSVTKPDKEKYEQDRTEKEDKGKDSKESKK

This experiment has as its target human NaV 1.7 (Homo sapiens, UniProt Q15858). Kind of experiment: E-VIPR optical membrane potential assay with electrical stimulation. The class given is cell-based. Conditions: sodium channel inhibition; read-out: Binned Activity Data (IC50). From the text:
Assays for Detecting and Measuring NaV Inhibition Properties of Compound E-VIPR Optical Membrane Potential Assay Method with Electrical Stimulation
Sodium channels are voltage-dependent proteins that can be activated by inducing membrane voltage changes by applying electric fields. The electrical stimulation instrument and methods of use are described in Ion Channel Assay Methods PCT/US01/21652, herein incorporated by reference and are referred to as E-VIPR. The instrument comprises a microtiter plate handler, an optical system for exciting the coumarin dye while simultaneously recording the coumarin and oxonol emissions, a waveform generator, a current- or voltage-controlled amplifier, and a device for inserting electrodes in well. Under integrated computer control, this instrument passes user-programmed electrical stimulus protocols to cells within the wells of the microtiter plate.
24 hours before the assay on E-VIPR, HEK cells expressing human NaV subtype, like NaV 1.7, are seeded in 384-well poly-lysine coated plates at 15,000-20,000 cells per well. Other subtypes are performed in an analogous mode in a cell line expressing the NaV of interest. HEK cells are grown in media (exact composition is specific to each cell type and NaV subtype) supplemented with 10% FBS (Fetal Bovine Serum, qualified; GibcoBRL #16140-071) and 1% Pen-Strep (Penicillin-Streptomycin; GibcoBRL #15140-122). Cells are grown in vented cap flasks, in 90% humidity and 10% CO2, to 100% confluence. They are usually split by trypsinization 1:10 or 1:20, depending on scheduling needs, and grown for 2-3 days before the next split.
Bath1 buffer. Glucose 10 mM (1.8 g/L), Magnesium Chloride (Anhydrous), 1 mM (0.095 g/L), Calcium Chloride, 2 mM (0.222 g/L), HEPES 10 mM (2.38 g/L), Potassium Chloride, 4.5 mM (0.335 g/L), Sodium Chloride 160 mM (9.35 g/L).
Hexyl Dye Solution: Bath1 Buffer+0.5% β-cyclodextrin (make this prior to use, Sigma #C4767), 8 μM CC2-DMPE+2.5 μM DiSBAC6(3). To make the solution Add volume of 10% Pluronic F127 stock equal to volumes of CC2-DMPE+DiSBAC6(3). The order of preparation is first mix Pluronic and CC2-DMPE, then add DiSBAC6(3) while vortexing, then add Bath1+β-Cyclodextrin.
1) Pre-spot compounds (in neat DMSO) into compound plates. Vehicle control (neat DMSO), the positive control (20 mM DMSO stock tetracaine, 125 μM final in assay) and test compounds are added to each well at 160× desired final concentration in neat DMSO. Final compound plate volume will be 80 μL (80-fold intermediate dilution from 1 μL DMSO spot; 160-fold final dilution after transfer to cell plate). Final DMSO concentration for all wells in assay is 0.625%.
2) Prepare Hexyl Dye Solution.
3) Prepare cell plates. On the day of the assay, medium is aspirated and cells are washed three times with 100 μL of Bath1 Solution, maintaining 25 μL residual volume in each well.
4) Dispense 25 μL per well of Hexyl Dye Solution into cell plates. Incubate for 20-35 minutes at room temp or ambient conditions.
5) Dispense 80 μL per well of Bath1 into compound plates. Acid Yellow-17 (1 mM) is added and Potassium Chloride can be altered from 4.5 to 20 mM depending on the NaV subtype and assay sensitivity.
6) Wash cell plates three times with 100 μL per well of Bath1, leaving 25 μL of residual volume. Then transfer 25 uL per well from Compound Plates to Cell Plates. Incubate for 20-35 minutes at room temp/ambient condition
7) Read Plate on E-VIPR. Use the current-controlled amplifier to deliver stimulation wave pulses for typically 9 seconds and a scan rate of 400 Hz. A pre-stimulus recording is performed for 0.5 seconds to obtain the un-stimulated intensities baseline. The stimulatory waveform is applied for 9 seconds followed by 0.5 seconds of post-stimulation recording to examine the relaxation to the resting state. […]
For the compound `COc1cc(C(=O)N2CCC3(CC2)Oc2cc(Cl)ccc2-n2cccc23)ccc1F` [Compound 63], the IC50 is not above 2000 nM.
In the case of `CC(C)C(O)c1ccc(C(=O)N2CCC3(CC2)Oc2ccccc2-n2c(C#N)ccc23)cc1` (centres unmarked) [Compound 65] it was not above 2000 nM; in that of `CC(C)Oc1ccc(C(=O)N2CCC3(CC2)Oc2ccccc2-c2c3cnn2C)cc1CO` [Compound 66], not above 2000 nM.
For `Cc1cc(C(=O)N2CCC3(CC2)Oc2ccccc2-c2c3cnn2C)ccc1S(=O)(=O)C(C)(C)C` [Compound 67], the half-maximal inhibitory concentration (IC50) was not above 2000 nM.
The result for `CCCOc1ccc(C(=O)N2CCC3(CC2)Oc2ccccc2-n2cccc23)cc1C(F)(F)F` [Compound 69] reads not above 2000 nM; that for `CC(C)Oc1ccc(C(=O)N2CCC3(CC2)Oc2ccccc2-n2c3ccc2S(C)(=O)=O)c(F)c1` [Compound 70], not above 2000 nM; that for `Cc1cc(C(=O)N2CCC3(CC2)Oc2cc(F)ccc2-n2cccc23)ccc1OCC1CCCO1` (centres unmarked) [Compound 74], not above 2000 nM.
The result for `Cc1cc(C(=O)N2CCC3(CC2)Oc2ccccc2-n2c(C#N)ccc23)ccc1O` [Compound 76] reads not above 2000 nM.
In the case of `CC(C)(C)S(=O)(=O)c1ccc(C(=O)N2CCC3(CC2)Oc2ccccc2-c2nn(C(F)(F)F)cc23)cc1` [Compound 78] it was not above 2000 nM; in that of `COc1ccc(Cl)cc1C(=O)N1CCC2(CC1)Oc1ccccc1-c1c2cnn1C` [Compound 80], more than 5000 nM; in that of `COc1ccccc1C(=O)N1CCC2(CC1)Oc1cc(Cl)ccc1-n1cccc12` [Compound 81], not above 2000 nM.
In the case of `COCCn1ncc2c1-c1ccccc1OC21CCN(C(=O)c2ccc(C(C)(C)C)c(OC)c2)CC1` [Compound 82], the half-inhibitory concentration (IC50) was not above 2000 nM.
The result for `COCCCOc1ccc(C(=O)N2CCC3(CC2)Oc2ccccc2-n2cccc23)cc1OC` [Compound 83] reads not above 2000 nM.
For `Cc1cc(OC(F)(F)F)ccc1C(=O)N1CCC2(CC1)Oc1ccccc1-c1c2cnn1C` [Compound 84], the IC50 is 2000 to 5000 nM.
In the case of `Cn1ncc2c1-c1ccccc1OC21CCN(C(=O)c2ccc(=O)n(C)c2)CC1` [Compound 87] it was more than 5000 nM; in that of `COc1cc(C(=O)N2CCC3(CC2)Oc2cc(Cl)ccc2-n2cccc23)ccc1OC[C@H](O)CO` [Compound 90], not above 2000 nM; in that of `Cc1nc2c(C(=O)N3CCC4(CC3)Oc3ccccc3-c3c4cnn3C)cccc2[nH]1` [Compound 92], 2000 to 5000 nM.
With `COc1cc(S(C)(=O)=O)ccc1C(=O)N1CCC2(CC1)Oc1ccccc1-c1c2cnn1C` [Compound 93], the IC50 lay within 2000 to 5000 nM.
The result for `COc1cc(OC(C)(C)C)ccc1C(=O)N1CCC2(CC1)Oc1ccccc1-c1c2cnn1C` [Compound 94] reads not above 2000 nM; that for `COC[C@H](C)Oc1ccc(C(=O)N2CCC3(CC2)Oc2ccccc2-n2cccc23)cc1C(F)(F)F` [Compound 95], not above 2000 nM; that for `COc1cc(C(=O)N2CCC3(CC2)Oc2ccccc2-n2cccc23)ccc1OCCO` [Compound 97], not above 2000 nM.
With `CCOc1cc(C(=O)N2CCC3(CC2)Oc2ccccc2-c2nn(C)cc23)ccc1OC` [Compound 98], the concentration for half-maximal inhibition (IC50) was not above 2000 nM.
In the case of `Cn1ncc2c1-c1ccccc1OC21CCN(C(=O)c2cccn3ccnc23)CC1` [Compound 99], the half-maximal inhibitory concentration (IC50) is not above 2000 nM.
In the case of `COC(=O)c1c(OC)cccc1C(=O)N1CCC2(CC1)Oc1ccccc1-n1c(C#N)ccc12` [Compound 101] it was not above 2000 nM; in that of `Cn1ncc2c1-c1ccccc1OC21CCN(C(=O)c2ccccc2O)CC1` [Compound 102], more than 5000 nM; in that of `CC(C)(CO)c1ccc(C(=O)N2CCC3(CC2)Oc2cc(Cl)ccc2-n2cccc23)cc1F` [Compound 103], not above 2000 nM.
Regarding `Cn1ncc2c1-c1ccccc1OC21CCN(C(=O)c2ccc(N3CCCCC3)nc2)CC1` [Compound 104], the 50% inhibitory concentration (IC50) was more than 5000 nM.
In the case of `Cc1ccc(C(=O)N2CCC3(CC2)Oc2cc(Cl)ccc2-n2cccc23)cc1C` [Compound 105], the 50% inhibitory concentration (IC50) is not above 2000 nM.
`CC(C)(CO)c1ccc(C(=O)N2CCC3(CC2)Oc2cc(Cl)ccc2-n2cccc23)cc1` [Compound 106]: the half-maximal inhibitory concentration (IC50) is not above 2000 nM.
The result for `Cn1ncc2c1-c1ccc(Cl)cc1OC21CCN(C(=O)c2cccc(F)c2OC(F)F)CC1` [Compound 108] reads not above 2000 nM.
Turning to `COc1c(C)cccc1C(=O)N1CCC2(CC1)Oc1ccccc1-c1c2cnn1C` [Compound 109], the half-maximal inhibitory concentration (IC50) is not above 2000 nM.
With `COc1ccc(C(=O)N2CCC3(CC2)Oc2cc(Cl)ccc2-n2cccc23)c(C)c1` [Compound 111], the half-inhibitory concentration (IC50) is not above 2000 nM.
For `COc1cc(C(=O)N2CCC3(CC2)Oc2ccccc2-n2cccc23)ccc1O[C@@H]1CCOC1` [Compound 112], the IC50 was not above 2000 nM.
In the case of `Cn1cc2c(n1)-c1ccccc1OC21CCN(C(=O)c2cccc3cccnc23)CC1` [Compound 113] it was not above 2000 nM; in that of `COc1cc(C(=O)N2CCC3(CC2)Oc2ccccc2-n2c(C(C)=O)ccc23)ccc1OC(C)C` [Compound 114], not above 2000 nM; in that of `COc1ccc(F)cc1C(=O)N1CCC2(CC1)Oc1ccccc1-n1c(C#N)ccc12` [Compound 115], not above 2000 nM.
Turning to `COc1cc(OC(F)(F)F)ccc1C(=O)N1CCC2(CC1)Oc1cc(Cl)ccc1-n1cccc12` [Compound 116], the IC50 was not above 2000 nM.
As to `CC(C)Oc1ccc(C(=O)N2CCC3(CC2)Oc2ccc(F)cc2-c2nn(C)cc23)cc1` [Compound 117], the IC50 is not above 2000 nM.
Turning to `CC(C)S(=O)(=O)c1ccc(C(=O)N2CCC3(CC2)Oc2ccccc2-n2ccnc23)cc1` [Compound 119], the IC50 was in the range of 2000 to 5000 nM.
The result for `COc1cc(OC(F)(F)F)ccc1C(=O)N1CCC2(CC1)Oc1ccccc1-c1c2cnn1C` [Compound 121] reads not above 2000 nM; that for `Cc1cc(C(=O)N2CCC3(CC2)Oc2ccccc2-n2c(C(F)(F)F)ccc23)ccc1S(C)(=O)=O` [Compound 123], not above 2000 nM.
As to `N#Cc1ccc2n1-c1ccccc1OC21CCN(C(=O)c2cccc(F)c2OC(F)F)CC1` [Compound 125], the concentration for half-maximal inhibition (IC50) is not above 2000 nM.
The result for `CC[C@H](C)Oc1ccc(C(=O)N2CCC3(CC2)Oc2ccccc2-n2cccc23)cc1C(F)(F)F` [Compound 126] reads not above 2000 nM; that for `COc1cc(F)c(F)cc1C(=O)N1CCC2(CC1)Oc1ccccc1-c1c2cnn1C` [Compound 127], more than 5000 nM; that for `CCCOc1ccc(C(=O)N2CCC3(CC2)Oc2ccccc2-c2c3cnn2C)cc1` [Compound 128], not above 2000 nM.
In the case of `COc1ccc(C(=O)N2CCC3(CC2)Oc2cc(Cl)ccc2-n2cccc23)c(C(F)(F)F)c1` [Compound 129] it was not above 2000 nM; in that of `CCOc1ncccc1C(=O)N1CCC2(CC1)Oc1ccccc1-n1c(C(F)(F)F)ccc12` [Compound 130], not above 2000 nM; in that of `CC[C@@H](C)Oc1ccc(C(=O)N2CCC3(CC2)Oc2ccccc2-n2cccc23)cc1C(F)(F)F` [Compound 131], not above 2000 nM.
The result for `CC(C)Oc1ccc(C(=O)N2CCC3(CC2)Oc2ccccc2-c2c3cnn2C)cc1Cl` [Compound 135] reads not above 2000 nM; that for `CCc1ccc(C(=O)N2CCC3(CC2)Oc2cc(CN)ccc2-n2cccc23)cc1OC` [Compound 137], more than 5000 nM.
For the compound `Cn1ncc2c1-c1ccccc1OC21CCN(C(=O)c2cccnc2Oc2ccccc2)CC1` [Compound 138], the IC50 was not above 2000 nM.
In the case of `COCCOc1ccc(C(=O)N2CCC3(CC2)Oc2cc(Cl)ccc2-n2cccc23)cc1OC` [Compound 139] it was not above 2000 nM; in that of `COc1cc(C(=O)N2CCC3(CC2)Oc2ccccc2-n2cccc23)ccc1OC[C@@H](O)CO` [Compound 140], not above 2000 nM.
